Source: ChEMBL document CHEMBL4385598, “A comprehensive review of topoisomerase inhibitors as anticancer agents in the past decade” (Eur J Med Chem, 2019)

What was measured:
L1210 = assay: Antitumor activity against mouse L1210 cells assessed as reduction in cell viability by MTT assay; format: functional, cell-based
HL-60 = assay: Antitumor activity against human HL60 cells assessed as reduction in cell viability by MTT assay; format: functional, cell-based
T47D = assay: Cytotoxicity against human T47D cells assessed as reduction in cell growth preincubated for 4 hrs in FBS starvation condition followed by incubation for 2 days by CCK8-based cell counting method; format: functional
HCT-116 = assay: Cytotoxicity against human HCT116 cells assessed as reduction in cell growth by WST-1 assay; format: functional, cell-based
HeLa [1] = assay: Cytotoxicity against human HeLa cells assessed as reduction in cell growth incubated for 48 hrs by SRB assay; format: functional, cell-based
Ca-Ski = assay: Cytotoxicity against human CaSki cells assessed as reduction in cell growth incubated for 48 hrs by SRB assay; format: functional, cell-based
K562 = assay: Antiproliferative activity against human K562 cells assessed as reduction in cell growth incubated for 48 hrs by MTT assay; format: functional, cell-based; conditions: K562, 48 h
K562/A02 = assay: Antiproliferative activity against human K562/A02 cells assessed as reduction in cell growth incubated for 48 hrs by MTT assay; format: functional, cell-based; conditions: K562/A02, 48 h
HeLa [2] = assay: Antiproliferative activity against human HeLa cells assessed as reduction in cell growth incubated for 48 hrs by MTT assay; format: functional, cell-based
[3] = molecular target: T1, DNA topoisomerase I (Bos taurus) (UniProt F1MN93); assay: Inhibition of calf thymus DNA topoisomerase 1 using supercoiled pBR322 plasmid DNA as substrate at 20 uM after 30 mins by agarose gel electrophoresis method relative to control
T1 sequence (whole entry): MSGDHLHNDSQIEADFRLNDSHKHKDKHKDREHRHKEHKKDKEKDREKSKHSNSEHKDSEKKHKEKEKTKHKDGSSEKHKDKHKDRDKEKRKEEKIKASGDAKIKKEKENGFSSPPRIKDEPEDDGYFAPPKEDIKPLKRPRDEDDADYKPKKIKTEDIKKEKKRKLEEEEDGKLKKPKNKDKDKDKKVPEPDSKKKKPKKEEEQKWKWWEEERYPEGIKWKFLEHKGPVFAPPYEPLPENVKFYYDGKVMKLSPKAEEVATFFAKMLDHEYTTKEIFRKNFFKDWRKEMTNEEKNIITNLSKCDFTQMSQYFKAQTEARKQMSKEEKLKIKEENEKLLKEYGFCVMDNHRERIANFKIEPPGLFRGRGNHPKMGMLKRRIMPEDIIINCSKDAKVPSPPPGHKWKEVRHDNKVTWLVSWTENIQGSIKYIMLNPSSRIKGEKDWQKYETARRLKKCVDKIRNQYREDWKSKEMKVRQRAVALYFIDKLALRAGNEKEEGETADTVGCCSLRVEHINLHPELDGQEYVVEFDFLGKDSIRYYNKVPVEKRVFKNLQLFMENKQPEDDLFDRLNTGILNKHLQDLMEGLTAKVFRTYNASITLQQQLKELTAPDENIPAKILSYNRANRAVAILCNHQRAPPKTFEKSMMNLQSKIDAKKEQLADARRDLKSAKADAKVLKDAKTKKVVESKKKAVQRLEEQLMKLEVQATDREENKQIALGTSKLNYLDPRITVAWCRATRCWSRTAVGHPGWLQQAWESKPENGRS

[4] = molecular target: DNA topoisomerase 2-alpha (Homo sapiens) (UniProt P11388); assay: Inhibition of human DNA topoisomerase 2 using supercoiled pBR322 plasmid DNA as substrate at 20 uM after 30 mins by agarose gel electrophoresis method relative to control
DNA topoisomerase 2-alpha (Homo sapiens), sequence (P11388 whole entry): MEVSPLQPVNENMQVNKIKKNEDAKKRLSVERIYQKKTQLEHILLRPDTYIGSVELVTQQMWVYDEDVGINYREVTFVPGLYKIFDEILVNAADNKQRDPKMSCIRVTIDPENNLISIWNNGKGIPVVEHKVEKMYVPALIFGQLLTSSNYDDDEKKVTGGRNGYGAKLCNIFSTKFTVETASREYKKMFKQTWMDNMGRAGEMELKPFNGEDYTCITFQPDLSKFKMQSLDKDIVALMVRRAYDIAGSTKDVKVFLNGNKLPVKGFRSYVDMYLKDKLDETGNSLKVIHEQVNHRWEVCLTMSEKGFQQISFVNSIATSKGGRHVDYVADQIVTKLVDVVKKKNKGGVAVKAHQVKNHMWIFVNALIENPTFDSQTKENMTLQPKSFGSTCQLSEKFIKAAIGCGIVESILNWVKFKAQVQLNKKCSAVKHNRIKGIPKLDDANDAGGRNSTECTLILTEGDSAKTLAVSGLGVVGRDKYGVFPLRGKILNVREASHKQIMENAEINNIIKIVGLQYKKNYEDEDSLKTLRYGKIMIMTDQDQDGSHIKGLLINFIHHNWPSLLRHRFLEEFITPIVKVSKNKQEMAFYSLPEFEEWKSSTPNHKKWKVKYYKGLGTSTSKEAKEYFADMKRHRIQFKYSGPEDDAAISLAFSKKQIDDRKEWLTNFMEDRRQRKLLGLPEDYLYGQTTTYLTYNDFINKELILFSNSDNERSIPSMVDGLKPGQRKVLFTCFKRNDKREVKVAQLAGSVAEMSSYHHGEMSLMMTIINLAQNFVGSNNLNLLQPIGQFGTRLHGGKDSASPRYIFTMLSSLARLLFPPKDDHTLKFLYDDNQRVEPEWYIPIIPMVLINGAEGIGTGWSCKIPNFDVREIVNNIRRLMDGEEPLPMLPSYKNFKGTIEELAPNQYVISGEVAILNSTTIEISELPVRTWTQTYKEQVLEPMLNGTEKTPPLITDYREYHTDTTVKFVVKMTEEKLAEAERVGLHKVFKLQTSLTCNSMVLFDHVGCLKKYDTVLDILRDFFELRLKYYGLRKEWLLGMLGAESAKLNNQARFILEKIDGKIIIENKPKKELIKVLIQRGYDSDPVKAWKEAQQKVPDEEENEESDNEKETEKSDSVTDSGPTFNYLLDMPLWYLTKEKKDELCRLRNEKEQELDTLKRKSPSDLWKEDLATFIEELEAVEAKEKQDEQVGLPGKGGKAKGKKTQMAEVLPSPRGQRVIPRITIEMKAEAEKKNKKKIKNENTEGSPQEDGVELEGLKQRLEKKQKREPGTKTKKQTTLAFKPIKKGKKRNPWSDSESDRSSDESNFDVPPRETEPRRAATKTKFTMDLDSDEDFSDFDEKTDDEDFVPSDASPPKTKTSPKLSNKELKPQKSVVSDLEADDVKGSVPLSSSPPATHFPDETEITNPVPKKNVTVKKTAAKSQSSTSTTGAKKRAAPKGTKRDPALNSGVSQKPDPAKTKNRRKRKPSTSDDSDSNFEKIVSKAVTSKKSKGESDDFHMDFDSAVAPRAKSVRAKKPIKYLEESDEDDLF

A549 = assay: Cytotoxicity against human A549 cells assessed as reduction in cell viability incubated for 24 hrs by MTT assay; format: functional, cell-based; conditions: A549, 24 h

COc1ccc(/C=N/NC(=O)c2cn(C3CC3)c3cc(N/N=C/c4ccc(OC)cc4)c(F)cc3c2=O)cc1
IC50 (L1210): ≤ 25 µM | IC50 (HL-60): ≤ 25 µM

O=C(N/N=C/c1ccccc1O)c1cn(C2CC2)c2cc(N3CCNCC3)c(F)cc2c1=O
IC50 (L1210): ≤ 25 µM | IC50 (HL-60): ≤ 25 µM

Oc1cccc(-c2cc(-c3ccc(Cl)cc3)cc(-c3ccccc3)n2)c1
IC50 (T47D): 680 to 1250 nM

Oc1cccc(-c2cc(-c3cccc(Cl)c3)cc(-c3ccccc3)n2)c1
IC50 (T47D): 680 to 1250 nM

O=c1c(O)c(-c2cc(O)c(O)c(O)c2)oc2cc(O)cc(O)c12 [MYRICETIN]
IC50 (HCT-116): 28.2 µM

Oc1cccc(-c2cc(-c3cccc(Cl)c3)cc(-c3ccsc3)n2)c1
IC50 (T47D): 680 to 1250 nM

COc1cc(CN2CCN(c3ccc(OC(F)(F)F)cc3)CC2)c2cc3[n+](cc2c1OC)CCc1cc2c(cc1-3)OCO2.[Cl-]
IC50 (HeLa [1]): < 6 µg/mL | IC50 (Ca-Ski): < 6 µg/mL

Oc1cccc(-c2cc(-c3ccccc3Cl)cc(-c3ccsc3)n2)c1
IC50 (T47D): 680 to 1250 nM

O=C(N/N=C/c1ccccc1O)c1cn(C2CC2)c2cc(N/N=C/c3ccccc3O)c(F)cc2c1=O
IC50 (L1210): ≤ 25 µM | IC50 (HL-60): ≤ 25 µM

COc1cc([C@@H]2c3cc4c(cc3[C@@H](NC/C=C/c3ccc(CN5CCN(c6ccc([N+](=O)[O-])cc6)CC5)o3)[C@H]3COC(=O)[C@H]23)OCO4)cc(OC)c1OC
IC50 (K562): 6.42 µM | IC50 (K562/A02): 6.89 µM | IC50 (HeLa [2]): 7.93 µM

O=C(N/N=C/c1ccccc1[N+](=O)[O-])c1cn(C2CC2)c2cc(N/N=C/c3ccccc3[N+](=O)[O-])c(F)cc2c1=O
IC50 (L1210): ≤ 25 µM | IC50 (HL-60): ≤ 25 µM

CC[C@@]1(O)C(=O)OCc2c1cc1n(c2=O)Cc2cc3ccccc3nc2-1
inhibition [3]: 51%

COc1ccc(/C=N/NC(=O)c2cn(C3CC3)c3cc(N4CCNCC4)c(F)cc3c2=O)cc1
IC50 (L1210): ≤ 25 µM | IC50 (HL-60): ≤ 25 µM

O=C(N/N=C/c1ccccc1)c1cn(C2CC2)c2cc(N/N=C/c3ccccc3)c(F)cc2c1=O
IC50 (L1210): ≤ 25 µM | IC50 (HL-60): ≤ 25 µM

COc1cc(CN2CCN(c3ccc(F)cc3)CC2)c2cc3[n+](cc2c1OC)CCc1cc2c(cc1-3)OCO2.[Cl-]
IC50 (HeLa [1]): < 6 µg/mL | IC50 (Ca-Ski): < 6 µg/mL

O=C(N/N=C/c1ccc2c(c1)OCO2)c1cn(C2CC2)c2cc(N3CCNCC3)c(F)cc2c1=O
IC50 (L1210): ≤ 25 µM | IC50 (HL-60): ≤ 25 µM

CCCCC[C@H](O)[C@@H](O)/C=C/[C@@H](O)CCCCCCCC(=O)O
inhibition [3]: 41% | inhibition [4]: 97%

COc1cc(CN2CCN(c3ccccc3F)CC2)c2cc3[n+](cc2c1OC)CCc1cc2c(cc1-3)OCO2.[Cl-]
IC50 (HeLa [1]): < 6 µg/mL | IC50 (Ca-Ski): < 6 µg/mL

COc1cc(/C=N/NC(=O)c2cn(C3CC3)c3cc(N/N=C/c4cc(OC)c(OC)c(OC)c4)c(F)cc3c2=O)cc(OC)c1OC
IC50 (L1210): ≤ 25 µM | IC50 (HL-60): ≤ 25 µM

COc1cc(CN2CCN(c3cccc(Cl)c3)CC2)c2cc3[n+](cc2c1OC)CCc1cc2c(cc1-3)OCO2.[Cl-]
IC50 (HeLa [1]): < 6 µg/mL | IC50 (Ca-Ski): < 6 µg/mL

Oc1ccc(-c2cc(-c3ccccc3Cl)cc(-c3ccco3)n2)cc1
IC50 (T47D): 680 to 1250 nM

COc1cc(CN2CCN(c3ccc(C(F)(F)F)cc3)CC2)c2cc3[n+](cc2c1OC)CCc1cc2c(cc1-3)OCO2.[Cl-]
IC50 (HeLa [1]): < 6 µg/mL | IC50 (Ca-Ski): < 6 µg/mL

COc1cc(CN2CCN(c3ccc([N+](=O)[O-])cc3)CC2)c2cc3[n+](cc2c1OC)CCc1cc2c(cc1-3)OCO2.[Cl-]
IC50 (HeLa [1]): < 6 µg/mL | IC50 (Ca-Ski): < 6 µg/mL

COc1cc(CN2CCN(c3ccc(Cl)cc3)CC2)c2cc3[n+](cc2c1OC)CCc1cc2c(cc1-3)OCO2.[Cl-]
IC50 (HeLa [1]): < 6 µg/mL | IC50 (Ca-Ski): < 6 µg/mL

O=C(N/N=C/c1ccccc1)c1cn(C2CC2)c2cc(N3CCNCC3)c(F)cc2c1=O
IC50 (L1210): ≤ 25 µM | IC50 (HL-60): ≤ 25 µM

COc1cc(CN2CCN(c3ccccc3Cl)CC2)c2cc3[n+](cc2c1OC)CCc1cc2c(cc1-3)OCO2.[Cl-]
IC50 (HeLa [1]): < 6 µg/mL | IC50 (Ca-Ski): < 6 µg/mL

COc1ccc(/C=N/NC(=O)c2cn(C3CC3)c3cc(N4CCNCC4)c(F)cc3c2=O)cc1O
IC50 (L1210): ≤ 25 µM | IC50 (HL-60): ≤ 25 µM

O=C(N/N=C/c1ccc2c(c1)OCO2)c1cn(C2CC2)c2cc(N/N=C/c3ccc4c(c3)OCO4)c(F)cc2c1=O
IC50 (L1210): ≤ 25 µM | IC50 (HL-60): ≤ 25 µM

COc1ccc(/C=N/NC(=O)c2cn(C3CC3)c3cc(N/N=C/c4ccc(OC)c(O)c4)c(F)cc3c2=O)cc1O
IC50 (L1210): ≤ 25 µM | IC50 (HL-60): ≤ 25 µM

Oc1cccc(-c2cc(-c3ccc(Cl)cc3)cc(-c3ccsc3)n2)c1
IC50 (T47D): 680 to 1250 nM

Oc1cccc(-c2cc(-c3cccc(Cl)c3)cc(-c3cccs3)n2)c1
IC50 (T47D): 680 to 1250 nM

Oc1cccc(-c2cc(-c3ccccc3Cl)cc(-c3ccccc3)n2)c1
IC50 (T47D): 680 to 1250 nM

Oc1cccc(-c2cc(-c3cccc(Cl)c3)cc(-c3ccco3)n2)c1
IC50 (T47D): 680 to 1250 nM

O=C(N/N=C/c1ccc(F)cc1)c1cn(C2CC2)c2cc(N3CCNCC3)c(F)cc2c1=O
IC50 (L1210): ≤ 25 µM | IC50 (HL-60): ≤ 25 µM

O=C(N/N=C/c1ccc(F)cc1)c1cn(C2CC2)c2cc(N/N=C/c3ccc(F)cc3)c(F)cc2c1=O
IC50 (L1210): ≤ 25 µM | IC50 (HL-60): ≤ 25 µM

COc1cc(/C=N/NC(=O)c2cn(C3CC3)c3cc(N4CCNCC4)c(F)cc3c2=O)cc(OC)c1OC
IC50 (L1210): ≤ 25 µM | IC50 (HL-60): ≤ 25 µM

Oc1cccc(-c2cc(-c3ccc(Cl)cc3)cc(-c3ccco3)n2)c1
IC50 (T47D): 680 to 1250 nM

CCCCCCCCCCCCCCCC(=O)O [PALMITIC ACID]
IC50 (A549): 150 µM

O=C(N/N=C/c1ccccc1[N+](=O)[O-])c1cn(C2CC2)c2cc(N3CCNCC3)c(F)cc2c1=O
IC50 (L1210): ≤ 25 µM | IC50 (HL-60): ≤ 25 µM

COc1cc(CN2CCN(c3ccc(C)cc3)CC2)c2cc3[n+](cc2c1OC)CCc1cc2c(cc1-3)OCO2.[Cl-]
IC50 (HeLa [1]): < 6 µg/mL | IC50 (Ca-Ski): < 6 µg/mL

COc1cc(CN2CCN(c3ccccc3[N+](=O)[O-])CC2)c2cc3[n+](cc2c1OC)CCc1cc2c(cc1-3)OCO2.[Cl-]
IC50 (HeLa [1]): < 6 µg/mL | IC50 (Ca-Ski): < 6 µg/mL
